Results as given in ChEMBL document CHEMBL1130626, “MEK inhibitors: the chemistry and biological activity of U0126, its analogs, and cyclization products” (Bioorg Med Chem Lett, 1998).
pIC50: −log10 of the molar value.

Key:
[1] = target: Dual specificity mitogen-activated protein kinase kinase; MEK1/2 (Homo sapiens, UniProt P36507+Q02750); test: Ability to antagonise AP-1 transcriptional activity; assay type: functional
[2] = target: T1, Dual specificity mitogen-activated protein kinase kinase 1 (Homo sapiens, UniProt Q02750)
T1 sequence (Q02750 whole entry): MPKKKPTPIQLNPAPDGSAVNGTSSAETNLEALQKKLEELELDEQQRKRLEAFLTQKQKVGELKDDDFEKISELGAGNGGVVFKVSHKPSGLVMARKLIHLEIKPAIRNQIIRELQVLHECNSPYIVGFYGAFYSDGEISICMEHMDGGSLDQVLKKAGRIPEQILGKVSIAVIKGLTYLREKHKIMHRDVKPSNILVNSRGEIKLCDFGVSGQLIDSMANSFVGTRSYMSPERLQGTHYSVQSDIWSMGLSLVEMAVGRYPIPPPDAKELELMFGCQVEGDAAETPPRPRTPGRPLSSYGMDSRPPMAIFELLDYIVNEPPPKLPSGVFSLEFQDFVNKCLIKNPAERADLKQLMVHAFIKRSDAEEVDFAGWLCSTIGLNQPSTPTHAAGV

[3] = target: T1, Dual specificity mitogen-activated protein kinase kinase 1; test: Non-competitive inhibition of the dual specificity kinase MEK at the concentration 10 uM
[4] = target: T1, Dual specificity mitogen-activated protein kinase kinase 1; test: Inhibition of the dual specificity kinase MEK-1 (Inactive)

Row | SMILES | IC50 [1] [nM] | pIC50 [2] | inhibition [3] [%] | IC50 [4]
1 | N#CC(=C(/N)Sc1cccc(Cl)c1)/C(C#N)=C(\N)Sc1cccc(Cl)c1 | 18400 | 5.72 |  | 
2 | N#CC(=C(/N)Sc1cccc(-c2ccccc2)c1)/C(C#N)=C(\N)Sc1cccc(-c2ccccc2)c1 |  |  | 54.6 | 
3 | N#CC(=C(/N)Sc1cc(I)ccc1N)/C(C#N)=C(\N)Sc1cc(I)ccc1N |  |  | 34.8 | 
4 | N#CC(=C(/N)Sc1ccccc1[N+](=O)[O-])/C(C#N)=C(\N)Sc1ccccc1[N+](=O)[O-] |  |  | 41 | 
5 | CN1/C(=C(C#N)\C(C#N)=C2\Sc3ccccc3N2C)Sc2ccccc21 |  |  |  | Not Active
6 | N#Cc1c(NS(=O)(=O)c2ccccc2)[nH]c(Sc2ccc3ccccc3c2)c1C#N | 8000 | 5.72 |  | 
7 | COc1ccc(S/C(N)=C(C#N)/C(C#N)=C(\N)Sc2ccc(OC)c(OC)c2)cc1OC |  |  | 0 | 
8 | N#CC(=C(/N)Sc1ccccc1O)/C(C#N)=C(\N)Sc1ccccc1O | 400 | 6.52 |  | 
9 | COc1ccc(OC)c(S/C(N)=C(C#N)/C(C#N)=C(\N)Sc2cc(OC)ccc2OC)c1 |  |  | 18 | 
10 | COc1ccccc1S/C(N)=C(C#N)/C(C#N)=C(\N)Sc1ccccc1OC | 16500 | 5.35 |  | 
11 | CC(=O)Nc1ccc(S/C(N)=C(C#N)/C(C#N)=C(\N)Sc2ccc(NC(C)=O)cc2)cc1 |  |  | 0 | 
12 | CS/C(N)=C(C#N)/C(C#N)=C(\N)SC |  |  | 24 | 
13 | N#CC(=C(/N)Sc1ccccc1F)/C(C#N)=C(\N)Sc1ccccc1F | 7600 | 6.05 |  | 
14 | N#CC(=C(/N)Sc1c(Cl)cccc1Cl)/C(C#N)=C(\N)Sc1c(Cl)cccc1Cl | 6500 | 5.55 |  | 
15 | N#CC(=C(/N)Sc1ccc(O)cc1)/C(C#N)=C(\N)Sc1ccc(O)cc1 |  | 6.40 |  | 
16 | N#Cc1c(N)[nH]c(Sc2ccccc2N)c1C#N | 26200 | 4.87 |  | 
17 | N#CC(=C(/N)SCCO)/C(C#N)=C(\N)SCCO |  |  | 0 | 
18 | N#Cc1c(N)[nH]c(Sc2ccc3ccccc3c2)c1C#N | 25100 | 5.85 |  | 
19 | N#CC(=C(/N)Sc1ccc(Cl)cc1)/C(C#N)=C(\N)Sc1ccc(Cl)cc1 | 21700 | 5.68 |  | 
20 | CC(=O)Nc1ccccc1Sc1c(C#N)c(C#N)c2sc3ccccc3n12 |  |  |  | Not Active

Row | SMILES | IC50 [1] [nM] | pIC50 [2] | inhibition [3] [%] | IC50 [4]
21 | N#CC(=C1/Nc2ccccc2S1)/C(C#N)=C1\Nc2ccccc2S1 | 42500 | 6.15 |  | 
22 | N#Cc1c(C#N)c2sc3ccccc3n2c1Sc1ccccc1N |  |  |  | Not Active
23 | N#CC(=C(/N)Sc1cccc2ccccc12)/C(C#N)=C(\N)Sc1cccc2ccccc12 |  |  | 26 | 
24 | N#CC(=C(/N)Sc1cccc(C(F)(F)F)c1)/C(C#N)=C(\N)Sc1cccc(C(F)(F)F)c1 |  |  | 32 | 
25 | CCc1ccccc1S/C(N)=C(C#N)/C(C#N)=C(\N)Sc1ccccc1CC |  |  | 18 | 
26 | N#CC(=C(/N)Sc1ccccc1CO)/C(C#N)=C(\N)Sc1ccccc1CO |  |  | 51 | 
27 | N#CC(=C(/N)Sc1cccs1)/C(C#N)=C(\N)Sc1cccs1 | 1200 | 6.52 |  | 
28 | N#CC(=C(/N)Sc1ccc(C(F)(F)F)cc1)/C(C#N)=C(\N)Sc1ccc(C(F)(F)F)cc1 |  |  | 33 | 
29 | N#CC(=C(/N)Sc1ccc2ccccc2c1N)/C(C#N)=C(\N)Sc1ccc2ccccc2c1N |  | 5.68 |  | 
30 | N#CC(=C(/N)Sc1ccccc1Br)/C(C#N)=C(\N)Sc1ccccc1Br | 7900 | 5.96 |  | 
31 | CNc1ccccc1S/C(N)=C(C#N)/C(C#N)=C(\N)Sc1ccccc1NC |  |  | 19.1 | 
32 | N#Cc1c(Sc2ccc3ccccc3c2)[nH]c(Sc2ccc3ccccc3c2)c1C#N | 28900 | 5.68 |  | 
33 | N#CC(=C(/N)Sc1ccc2ccccc2c1)/C(C#N)=C(\N)Sc1ccc2ccccc2c1 |  |  | 54 | 
34 | N#CC(=C(/N)Sc1ccccc1-c1ccccc1)/C(C#N)=C(\N)Sc1ccccc1-c1ccccc1 |  |  | 8.7 | 
35 | N#CC(=C(/N)Sc1ccccc1)/C(C#N)=C(\N)Sc1ccccc1 | 12200 | 6.05 |  | 
36 | N#CC(=C(/N)Sc1ccccc1Cl)/C(C#N)=C(\N)Sc1ccccc1Cl | 6600 | 6.05 |  | 
37 | N#CC(=C(/N)Sc1c(F)c(F)c(F)c(F)c1F)/C(C#N)=C(\N)Sc1c(F)c(F)c(F)c(F)c1F |  |  | 17 | 
38 | N#CC(=C(/N)Sc1ccc(-c2ccccc2)cc1)/C(C#N)=C(\N)Sc1ccc(-c2ccccc2)cc1 |  |  | 34 | 
39 | Cc1ccccc1S/C(N)=C(C#N)/C(C#N)=C(\N)Sc1ccccc1C | 13300 | 5.70 |  | 
40 | N#CC(=C(/N)Sc1ccccc1N)/C(C#N)=C1\Nc2ccccc2S1 | 18700 | 5.49 |  | 
